Measured values from US20120270929A1, “MODULATION OF TTC39 EXPRESSION TO INCREASE HDL” (ISIS Pharmaceuticals, Inc., priority 2009, published 2012).
Oligonucleotides are written 5' to 3', each unit as a sugar letter and its base; * is a phosphorothioate linkage, no mark a phosphodiester; rarer units and linkages stand in square brackets, end groups in braces. Plain capitals give the bases only. e = 2'-O-(2-methoxyethyl) (MOE); [5mC] = 5-methylcytosine; d = 2'-deoxy (DNA)

Tests used:
murine TTC39C mRNA [1] = assay: Antisense inhibition of mouse TTC39C in mouse primary hepatocytes, single dose; format: cell-based; conditions: 8,000 nM antisense oligonucleotide, electroporation, approximately 24 hours, TTC39C mRNA by real-time PCR (RTS3266), relative to untreated control cells
Procedure: Antisense oligonucleotides were designed targeting a TTC39C nucleic acid and were tested for their effects on TTC39C mRNA in vitro. Cultured mouse primary hepatocytes at a density of 30,000 cells per well were transfected by electroporation with 8,000 nM antisense oligonucleotide. After a treatment period of approximately 24 hours, RNA was isolated from the cells and TTC39C mRNA levels were measured by quantitative real-time PCR. Mouse primer probe set RTS3266 (forward sequence […], designated herein as SEQ ID NO: 140; reverse sequence […], designated herein as SEQ ID NO: 141; probe sequence […], designated herein as SEQ ID NO: 142). TTC39C mRNA levels were adjusted according to total RNA content, as measured by RIBOGREEN®. Results are presented as percent inhibition of TTC39C, relative to untreated control cells.
The chimeric antisense oligonucleotides targeting TTC39C were designed as 5-10-5 MOE gapmers. The gapmers are 20 nucleotides in length, wherein the central gap segment is comprised of ten 2′-deoxynucleotides and is flanked on both sides (in the 5′ and 3′ directions) by wings comprising five nucleotides each. Each nucleotide in the 5′ wing segment and each nucleotide in the 3′ wing segment has a 2′-MOE modification. The internucleoside linkages throughout each gapmer are phosphorothioate (P═S) linkages. All cytosine residues throughout each gapmer are 5-methylcytosines. “Mouse Target start site” indicates the 5′-most nucleotide to which the gapmer is targeted in the mouse gene sequence.

murine TTC39C mRNA [2] = assay: Dose-dependent antisense inhibition of murine TTC39C in mouse primary hepatocytes; format: cell-based; conditions: electroporation, ~16 h; for IC50: mouse primary hepatocytes
Procedure: Thirty antisense oligonucleotides were selected from the study described in Example 8 and further tested at various doses in mouse primary hepatocytes. Cells were plated at a density of 30,000 cells per well and transfected using electroporation with 500 nM, 1,000 nM, 2,000 nM, 4,000 nM, and 8,000 nM concentrations of antisense oligonucleotide, as specified in Table 30. After a treatment period of approximately 16 hours, RNA was isolated from the cells and TTC39C mRNA levels were measured by quantitative real-time PCR. Murine primer probe set RTS3266 was used to measure mRNA levels. TTC39C mRNA levels were adjusted according to total RNA content, as measured by RIBOGREEN®. Results are presented as percent inhibition of TTC39C, relative to untreated control cells.

| Substance | % inhibition (murine TTC39C mRNA [1]) [%] | percent inhibition of TTC39C mRNA (murine TTC39C mRNA [2]; 500.0 nM) [%] | percent inhibition of TTC39C mRNA (murine TTC39C mRNA [2]; 1000.0 nM) [%] | percent inhibition of TTC39C mRNA (murine TTC39C mRNA [2]; 2000.0 nM) [%] | percent inhibition of TTC39C mRNA (murine TTC39C mRNA [2]; 4000.0 nM) [%] | percent inhibition of TTC39C mRNA (murine TTC39C mRNA [2]; 8000.0 nM) [%] | IC50 (murine TTC39C mRNA [2]) [nM] |
| --- | --- | --- | --- | --- | --- | --- | --- |
| ISIS 474523: 5-10-5 MOE gapmer antisense oligonucleotide targeting murine TTC39C (antisense eG*eG*eT*e[5mC]*eA*d[5mC]*d[5mC]*d[5mC]*d[5mC]*dT*dT*d[5mC]*dG*dG*d[5mC]*e[5mC]*eA*e[5mC]*eA*eA) | 98 | 72 | 80 | 94 | 96 | 97 | – |
| ISIS 474532: 5-10-5 MOE gapmer antisense oligonucleotide targeting murine TTC39C (antisense eG*eT*eT*eG*eT*dG*d[5mC]*d[5mC]*d[5mC]*d[5mC]*dA*dT*d[5mC]*d[5mC]*dA*e[5mC]*eA*eT*e[5mC]*eA) | 99 | 51 | 64 | 84 | 94 | 97 | 400 |
| ISIS 474535: 5-10-5 MOE gapmer antisense oligonucleotide targeting murine TTC39C (antisense eT*e[5mC]*e[5mC]*eA*e[5mC]*dT*dT*d[5mC]*dA*dT*dG*dG*d[5mC]*dA*dA*eG*e[5mC]*eT*eT*eG) | 96 | 18 | 35 | 61 | 83 | 93 | 1500 |
| ISIS 474538: 5-10-5 MOE gapmer antisense oligonucleotide targeting murine TTC39C (antisense eT*eA*eG*e[5mC]*eA*d[5mC]*dG*d[5mC]*dA*dT*dA*dT*dG*dG*d[5mC]*eG*eG*eG*eA*e[5mC]) | 96 | 51 | 58 | 82 | 88 | 92 | 400 |
| ISIS 474540: 5-10-5 MOE gapmer antisense oligonucleotide targeting murine TTC39C (antisense e[5mC]*e[5mC]*eA*e[5mC]*eT*dG*dG*dG*dA*dG*dT*dT*dT*dA*dT*e[5mC]*eA*e[5mC]*eT*eG) | 98 | 43 | 65 | 81 | 92 | 97 | 500 |
| ISIS 474543: 5-10-5 MOE gapmer antisense oligonucleotide targeting murine TTC39C (antisense e[5mC]*e[5mC]*eA*eG*eG*dT*dG*dG*d[5mC]*dT*dT*dT*dG*dG*d[5mC]*eT*eT*eG*eG*eG) | 98 | 77 | 88 | 88 | 88 | 94 | – |
| ISIS 474589: 5-10-5 MOE gapmer antisense oligonucleotide targeting murine TTC39C (antisense eT*e[5mC]*e[5mC]*eG*eA*dA*dA*dT*d[5mC]*dG*d[5mC]*dT*d[5mC]*dA*dG*e[5mC]*e[5mC]*eT*eG*e[5mC]) | 100 | 95 | 96 | 97 | 99 | 100 | – |
| ISIS 474592: 5-10-5 MOE gapmer antisense oligonucleotide targeting murine TTC39C (antisense eG*eA*eA*eG*e[5mC]*dA*dT*dA*dT*dT*dG*dA*dT*dG*d[5mC]*e[5mC]*eA*eG*e[5mC]*e[5mC]) | 93 | 24 | 45 | 71 | 84 | 92 | 1200 |
| ISIS 474595: 5-10-5 MOE gapmer antisense oligonucleotide targeting murine TTC39C (antisense eG*eT*e[5mC]*eA*eT*d[5mC]*dG*d[5mC]*dA*d[5mC]*dG*d[5mC]*d[5mC]*dA*dA*e[5mC]*eT*eG*e[5mC]*eA) | 97 | 80 | 87 | 95 | 98 | 98 | – |
| ISIS 474596: 5-10-5 MOE gapmer antisense oligonucleotide targeting murine TTC39C (antisense e[5mC]*eG*eA*eT*eT*dA*d[5mC]*dA*d[5mC]*d[5mC]*dA*dG*d[5mC]*d[5mC]*dT*e[5mC]*eT*eT*e[5mC]*eA) | 93 | 47 | 65 | 62 | 90 | 96 | 600 |
| ISIS 474598: 5-10-5 MOE gapmer antisense oligonucleotide targeting murine TTC39C (antisense e[5mC]*e[5mC]*e[5mC]*eA*e[5mC]*d[5mC]*dT*dT*dT*dT*dA*dT*dG*dT*dA*eG*eG*e[5mC]*e[5mC]*eG) | 94 | 40 | 37 | 60 | 83 | 94 | 1100 |
| ISIS 474599: 5-10-5 MOE gapmer antisense oligonucleotide targeting murine TTC39C (antisense e[5mC]*eG*eT*eT*eG*dA*dT*dG*dT*d[5mC]*d[5mC]*dA*d[5mC]*dA*dT*eA*eG*e[5mC]*eA*e[5mC]) | 92 | 36 | 59 | 60 | 84 | 92 | 900 |
| ISIS 474600: 5-10-5 MOE gapmer antisense oligonucleotide targeting murine TTC39C (antisense e[5mC]*e[5mC]*eA*eA*eG*dG*dG*d[5mC]*dT*d[5mC]*dT*dT*d[5mC]*d[5mC]*dG*eT*e[5mC]*eA*eG*e[5mC]) | 90 | 47 | 57 | 66 | 86 | 89 | 600 |
| ISIS 474601: 5-10-5 MOE gapmer antisense oligonucleotide targeting murine TTC39C (antisense eG*eG*e[5mC]*e[5mC]*eA*dT*dA*dT*d[5mC]*d[5mC]*dA*dA*dA*dG*d[5mC]*eT*e[5mC]*eA*e[5mC]*eA) | 91 | 36 | 49 | 65 | 87 | 92 | 1000 |
